Results on 1 compound are retold here after patent publication US20240382497A1, “PROPHYLACTIC OR THERAPEUTIC AGENT FOR HYPOXIC INJURY, ISCHAEMIA-REPERFUSION INJURY AND INFLAMMATION, CELL PROTECTION AGENT FOR TRANSPLANTATION, AND BIO-PRESERVATION AGENT” (priority 2018, published 2024).

What all share (assay type): in vivo, mouse
Assay [1] concerns C57/BL6N male mice. The assay is described as follows: Core body temperature under the odor conditions of Example 14. The settings on record: odor presentation conditions of Example 14. As for the experimental part: (§1) An influence of a thiazoline-related compound and an odor molecule that induces learned fear on the core body temperature was analyzed. A radio-telemetry device for monitoring biological parameters (manufactured by Physiotel) was surgically implanted in the abdomen of male C57/BL6N mice (about 3 months old). The mice were subjected to the following experiment after about 10 days of recovery period. […] The information of body temperature was recorded every 10 sec using Dataquest A.R.T. software (DataScience international). The value of the core body temperature change was calculated as the difference between the mean core body temperature for 10 min when water was presented and the mean core body temperature for 20 min when each odor molecule was presented, and the change in the core body temperature without odor was set to 0. […]
Skin ischemia-reperfusion injury model mouse was generated as follows according to the method of Uchiyama et al. (Uchiyama et al., Sci Rep 5:9072, 2015). […] The condition of the skin on the back, which was pinched between magnets, was recorded by taking photographs every day. Based on the obtained images, the wound area was quantified with image analysis software (Photoshop, Adobe). Furthermore, changes in the core body temperature when the odor was presented under the same conditions as in this Example were measured by the same experimental method as in Example 2.

Assay [2] has as its system Male C57/BL6N mice. In words: Heart rate on odor presentation (radio-telemetry). The settings on record: filter paper scented with 271 μmol odor. As for the experimental part: An influence of a thiazoline-related compound and an odor molecule that induces learned fear on the heart rate was analyzed. A radio-telemetry device for monitoring biological parameters (manufactured by Physiotel) was surgically implanted in the abdomen of male C57/BL6N mice (about 3 months old). The mice were subjected to the following experiment after about 10 days of recovery period. Each mouse was placed in a test cage and, after acclimation for 10 min, a filter paper dropped with water was presented for 10 min, after which a filter paper scented with 271μmol of a thiazoline-related compound (2-methyl-2-thiazoline; 2MT) or an odor molecule that induces learned fear (anisole) was presented for 20 min. The information of heart rate was recorded every 10 sec using Dataquest A.R.T. software (DataScience international). The value of the heart rate change was calculated as the difference between the heart rate for 10 min when water was presented and the mean heart rate for 20 min when each odor molecule was presented, and the change in the heart rate without odor was set to 0. The mice presented with the odor that induces learned fear were trained to associate the anisole odor with electric shock one day before the measurement, whereby the mice learned to feel learned fear against the smell of anisole.

Assay [3] relates to C57/BL6N male mice. The assay is described as follows: Core body temperature under the odor conditions of Example 9. As to conditions: odor presentation conditions of Example 9. On the procedure:
as §1
About 3-month-old C57/BL6N male mice were each placed in a highly sealed breeding cage, and a filter paper scented with 100 μl (104 mmol) of the thiazoline-related compound (2MT) was placed in the breeding cage, and the odor was presented for 50 min. After the odor was presented, the mice were placed in a tight box in which the oxygen concentration was adjusted to 4%, and the survival time of the mice was measured up to 30 min at maximum. As a control, the survival time of mice presented with a filter paper dropped with water was also measured (no odor). […]

On to `CC1=NCCS1` [2MT, 2-methyl-2-thiazoline], for which the core body temperature result in assay [1] and in assay [3] was “remarkable decrease in the core body temperature” throughout. Besides, the “time to decrease in the heart rate to half” value in assay [2] is listed as at most 3 min. Further, the “changes in the heart rate” value in assay [2] (20 min, versus no odor) is reported as “clear decrease in the heart rate”.
